Results from publication PMC8279156, “Design, synthesis, HER2 inhibition and anticancer evaluation of new substituted 1,5-dihydro-4,1-benzoxazepines” (Journal of Enzyme Inhibition and Medicinal Chemistry, 2021).
Read-outs that look alike come from different tables or passages of the source.

Legend:
[1] = system: MCF-7 human breast cancer cell line; details: previously described compounds, cited from earlier work
[2] = biological target: isolated HER2 (Homo sapiens, UniProt P04626); assay: HER2 inhibition assay, radiometric protein kinase assay (33PanQinase Activity Assay); assay type: biochemical; details: for ΔΔG Experiment (3 -> L): binding free energy difference relative to bozepinib (3), extracted from IC50 values; for IC50: isolated HER2, radiometric assay, 10 concentrations in singlicate
Method: The IC50 profile of the target compounds was determined using isolated HER2. IC50 values were measured by testing 10 concentrations (1 × 10 ^−4 M to 3 × 10 ^−9 M) of each compound in singlicate. A radiometric protein kinase assay (33PanQinase® Activity Assay) was used for measuring the kinase activity of HER2. The assay was performed in 96-well FlashPlatesTM from PerkinElmer (Boston, MA) in a 50 µl reaction volume. […] The reaction cocktails were incubated at 30 °C for 60 min. The reaction was halted with 50 µl of 2% (v/v) H3PO4, plates were aspirated and washed two times with 200 µl 0.9% (w/v) NaCl. Incorporation of ^33Pi was determined with a microplate scintillation counter (Microbeta, Wallac, Waltham, MA).
Human epidermal growth factor receptor 2 (HER2) is overexpressed in about 20% of all breast cancers. […] This prompted us to evaluated compounds 7–9 for their in vitro HER2 inhibitory effect. The IC50 profile of the target compounds was determined against isolated HER2 using a radiometric assay (Table 1).

[3] = system: MCF-7 human breast cancer cell line; assay: Proliferation assay (sulphorhodamine-B) in MCF-7; assay type: cell-based; details: MCF7, 72 h of treatment, mean ± SD
Method: (§1) MCF-7, HCT-116, A-375 and SKBR cells were grown at 37 °C in an atmosphere containing 5% CO2, with Dulbecco’s modified Eagle Medium (DMEM) (Gibco, Grand Island, NY) supplemented with 10% heat-inactivated foetal bovine serum (FBS) (Gibco), 2% L-glutamine, 2.7% sodium bicarbonate, 1% Hepes buffer, 40 mg/L gentamicin and 500 mg/L ampicillin.
(§2) Compounds were dissolved in DMSO and stored at −20 °C. For each experiment, the stock solutions were further diluted in medium to obtain the desired concentrations. The final solvent concentration in cell culture was ≤ 0.1% v/v of DMSO, a concentration without any effect on cell replication. Parallel cultures of MCF-7, HCT-116, A375 and SKBR-3 cells in medium with DMSO were used as controls.
(§3) The effect of the compounds on cell viability was assessed using the sulphorhodamine-B colorimetric assay. Cells suspension (1 × 10^3 cells/well) were seeded onto 24-well plates and incubated for 24 h. The cells were then treated with different concentrations of drugs in their respective culture medium and maintained with the treatment for 3 days. Three days later, wells were aspirated and fresh medium and drug were added. Then cell cultures were maintained for 3 additional days. Thereafter, a Titertek Multiscan (Flow, Irvine, CA) at 492 nm was used. The linearity of the SRB assay was evaluated with a cell number for each cell stock before each cell growth experiment. The IC50 values were calculated from semi-logarithmic dose–response curves by linear interpolation. All the experiments were plated in triplicate wells and were carried out twice.
(§4) We then investigated the effects of the target compounds on cell proliferation on the human breast cancer cell lines MCF-7 and SKBR-3, the human colon carcinoma cell line HCT-116 and the human malignant melanoma cell line A-375. The antiproliferative activity of 7–9 was evaluated using sulphorhodamine-B colorimetric assay after 72 h of treatment (Table 3).
(§5) All experiments were conducted in duplicate and gave similar results. The data are mean ± SD of three independent determinations. MCF-7: human breast cancer cell line; SKBR3: human breast cancer cell line; HCT-116: human colon cancer cell line and A-375: human melanoma cancer cell line.

[4] = system: SKBR3 human breast cancer cell line; assay: Proliferation assay (sulphorhodamine-B) in SKBR3; assay type: cell-based; details: SK-BR-3, 72 h of treatment, mean ± SD
Method: as §1, §2, §3, §4, §5

[5] = system: HCT-116 human colon cancer cell line; assay: Proliferation assay (sulphorhodamine-B) in HCT-116; assay type: cell-based; details: 72 h of treatment, mean ± SD
Method: as §1, §2, §3, §4, §5

[6] = system: A-375 human melanoma cancer cell line; assay: Proliferation assay (sulphorhodamine-B) in A-375; assay type: cell-based; details: 72 h of treatment, mean ± SD, read-out: IC50 A375
Method: as §1, §2, §3, §4, §5

[7] = system: MCF-7, SKBR3, HCT-116 and A-375 cell lines; assay: Proliferation assay (sulphorhodamine-B), all tumour cell lines studied; assay type: cell-based; details: Homo sapiens, span over the four cell lines, read-out: IC50 against all the tumour cell lines studied
Method: as §1
Compounds were dissolved in DMSO and stored at −20 °C. For each experiment, the stock solutions were further diluted in medium to obtain the desired concentrations. The final solvent concentration in cell culture was ≤ 0.1% v/v of DMSO, a concentration without any effect on cell replication. […]
The effect of the compounds on cell viability was assessed using the sulphorhodamine-B colorimetric assay. […] The linearity of the SRB assay was evaluated with a cell number for each cell stock before each cell growth experiment. The IC50 values were calculated from semi-logarithmic dose–response curves by linear interpolation. […]
as §4, with “3). […]” for “3).”

[8] = system: HER2; assay: Western blot, HER2 expression in SKBR cells; assay type: cell-based, human; details: 5 µM
Method: (§6) We performed a western blot to study differences in protein expression after treatment with 5 µM of 7c.
(§7) SKBR cells seeded on 6-well plates were treated during 4 h and 16, lysed using RIPA Lysis Buffer System (Santa Cruz Biotechnology, Santa Cruz, CA) and quantified by Pierce™ BCA Protein Assay Kit (Thermo Fisher Scientific, Waltham, MA). Western blot was realised using 4× Laemmli sample buffer (Bio-Rad, Hercules, CA) and separated by SDS-polyacrylamide gel electrophoresis (SDS–PAGE) and then, transferred to PVDF membranes. Blocking was realised with milk in PBS 5%.
(§8) The following primary antibodies were used to detect protein expression,: caspase 3: ref-9662S (Cell Signalling, Beverly, MA), caspase 1(14F468): sc-56036 (Santa Cruz Biotechnology, Santa Cruz, CA), cytochrome-c (A-8): sc-13156 (Santa Cruz Biotechnology, Santa Cruz, CA), Bax(B-9): sc-7480 (Santa Cruz Biotechnology, Santa Cruz, CA) and β-actin: sc-47778 (Santa Cruz Biotechnology, Santa Cruz, CA). […] Protein–antibody complexes were made visible using enhanced chemiluminescence (ECL, Bonus, Amersham, Little Chalfont, UK) with the program IMAGE READER LAS-4000 in a LAS-4000 imaging system. Quantity One program were used to analyse the intensity of the signal. […]

[9] = system: Bax; assay: Western blot, Bax expression in SKBR cells; assay type: cell-based, human; details: 5 µM, 4 h and 16 h, control and treated cells
Method: as §6, §7, §8

[10] = system: cytochrome c; assay: Western blot, cytochrome c expression in SKBR cells; assay type: cell-based, human; details: 5 µM
Method: as §6, §7, §8

[11] = system: pro-caspase 3; assay: Western blot, pro-caspase 3 expression in SKBR cells; assay type: cell-based, human; details: 5 µM
Method: as §6, §7, §8

[12] = system: caspase 1; assay: Western blot, caspase 1 expression in SKBR cells; assay type: cell-based, human; details: 5 µM, 16 h of exposition
Method: as §6, §7, §8

[13] = read-out: in vitro antiproliferative activity against MCF-7

isolated HER2, sequence (P04626 23-1255): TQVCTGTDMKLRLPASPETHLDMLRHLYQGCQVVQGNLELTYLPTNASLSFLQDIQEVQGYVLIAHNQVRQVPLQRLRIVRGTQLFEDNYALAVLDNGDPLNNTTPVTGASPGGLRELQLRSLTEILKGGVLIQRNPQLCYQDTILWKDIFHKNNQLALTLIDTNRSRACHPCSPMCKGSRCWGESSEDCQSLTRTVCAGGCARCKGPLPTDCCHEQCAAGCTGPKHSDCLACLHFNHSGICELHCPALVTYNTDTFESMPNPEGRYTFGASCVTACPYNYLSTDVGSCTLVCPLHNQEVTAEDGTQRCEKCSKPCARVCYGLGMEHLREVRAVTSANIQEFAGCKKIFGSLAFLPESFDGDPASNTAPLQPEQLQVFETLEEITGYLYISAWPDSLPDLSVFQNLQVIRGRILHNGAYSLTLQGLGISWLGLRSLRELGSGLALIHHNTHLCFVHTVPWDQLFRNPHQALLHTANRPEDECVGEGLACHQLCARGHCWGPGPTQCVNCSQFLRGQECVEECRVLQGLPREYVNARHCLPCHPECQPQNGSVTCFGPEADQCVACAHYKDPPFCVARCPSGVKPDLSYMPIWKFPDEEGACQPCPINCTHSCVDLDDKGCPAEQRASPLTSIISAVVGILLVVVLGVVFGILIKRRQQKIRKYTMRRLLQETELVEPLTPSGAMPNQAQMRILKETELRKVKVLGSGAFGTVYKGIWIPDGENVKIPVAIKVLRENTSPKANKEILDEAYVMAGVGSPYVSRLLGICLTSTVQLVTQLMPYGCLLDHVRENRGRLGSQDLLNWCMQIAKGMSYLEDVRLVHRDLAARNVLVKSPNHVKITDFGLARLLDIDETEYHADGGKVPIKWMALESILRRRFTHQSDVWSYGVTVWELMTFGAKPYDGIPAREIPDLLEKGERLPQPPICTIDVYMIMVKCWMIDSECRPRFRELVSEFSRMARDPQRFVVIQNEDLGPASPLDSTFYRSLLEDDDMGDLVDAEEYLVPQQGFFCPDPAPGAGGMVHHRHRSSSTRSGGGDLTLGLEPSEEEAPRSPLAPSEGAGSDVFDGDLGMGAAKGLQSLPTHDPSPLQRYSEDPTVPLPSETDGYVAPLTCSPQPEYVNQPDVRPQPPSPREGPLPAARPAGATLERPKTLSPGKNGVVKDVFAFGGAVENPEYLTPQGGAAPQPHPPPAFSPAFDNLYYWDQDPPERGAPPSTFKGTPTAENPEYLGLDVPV

O=[N+]([O-])c1ccc(S(=O)(=O)N2CC(n3cnc4ncnc(Sc5ccccc5)c43)OCc3ccccc32)cc1 (stereo not shown) [Compound 1]
IC50 [1, 13]: 0.86 µM

O=[N+]([O-])c1ccccc1S(=O)(=O)N1CC(n2cnc3ncnc(Sc4ccccc4)c32)OCc2ccccc21 (stereo not shown) [Compound 2]
IC50 [1, 13]: 2.59 µM

O=[N+]([O-])c1ccccc1S(=O)(=O)N1CC(n2cnc3c(Cl)nc(Cl)nc32)OCc2ccccc21 (stereo not shown) [Compound 4]
IC50 ([1]; introduction, no reference number printed at the values, read-out: IC50 against the MCF-7 cell line): 0.383 µM

Cc1ccc(S(=O)(=O)N2CC(n3cnc4c(Cl)ncnc43)OCc3ccccc32)cc1 (stereo not shown) [Compound 7a, 6-Chloro-9-[1-(p-methylbenzenesulfonyl)-1,2,3,5-tetrahydro-4,1-benzoxazepine-3-yl]-9H-purine]
ΔΔG Experiment (3 -> L) [2]: >0.76 kcal/mol
IC50 [2]: > 100 µM
IC50 [3]: 0.12 µM
IC50 [4]: 1.08 ± 0.02 µM
IC50 [5]: 1.03 ± 0.05 µM
IC50 [6]: 0.78 ± 0.03 µM
IC50 [7]: ≤ 1 µM
melting point: 178 to 180 °C

Cc1ccc(S(=O)(=O)N2CC(n3cnc4c(Br)ncnc43)OCc3ccccc32)cc1 (stereo not shown) [Compound 7b, 6-Bromo-9-[1-(p-methylbenzenesulfonyl)-1,2,3,5-tetrahydro-4,1-benzoxazepine-3-yl]-9H-purine]
ΔΔG Experiment (3 -> L) [2]: >0.76 kcal/mol
IC50 [2]: > 100 µM
IC50 [3]: 9.57 ± 0.03 µM
IC50 [4]: 2.3 ± 0.04 µM
IC50 [5]: 3.1 ± 0.01 µM
IC50 [6]: 3.08 ± 0.01 µM
IC50 [7]: 2.3 to 9.57 µM
melting point: 169 to 171 °C

Cc1ccc(S(=O)(=O)N2CC(n3cnc4c(Cl)nc(Cl)nc43)OCc3ccccc32)cc1 (stereo not shown) [Compound 7c, 2,6-Dichloro-9-[1-(p-methylbenzenesulfonyl)-1,2,3,5-tetrahydro-4,1-benzoxazepine-3-yl]-9H-purine]
ΔΔG Experiment (3 -> L) [2]: >0.76 kcal/mol
IC50 [2]: > 100 µM
IC50 [3]: 0.86 ± 0.06 µM
IC50 [4]: 0.42 ± 0.01 µM
IC50 [5]: 0.86 ± 0.03 µM
IC50 [6]: 0.78 ± 0.05 µM
HER2 expression, normalised with β-actin and relative to control (value 1) ([8]; 4 h of treatment): 0.48
HER2 expression, normalised with β-actin and relative to control (value 1) ([8]; 16 h of treatment): 0.07
Bax expression (western blot) [9]: none expression of Bax
cytochrome c expression, normalised value relative to control (value 1) ([10]; 4 h of treatment): 0.93
cytochrome c expression, normalised value relative to control (value 1) ([10]; 16 h of treatment): 0.70
pro-caspase 3 expression, normalised value relative to control (value 1) ([11]; 4 h after treatment): 1.18
pro-caspase 3 expression, normalised value relative to control (value 1) ([11]; 16 h after treatment): 0.43
caspase 1 expression, normalised value relative to control (value 1) [12]: 3.1
melting point: 193 to 195 °C

O=[N+]([O-])c1ccc(S(=O)(=O)N2CC(n3cnc4c(Sc5ccccc5)nc(Cl)nc43)OCc3ccccc32)cc1 (stereo not shown) [Compound 9a, 2-Chloro-6-phenylthio-9-[1-(p-nitrobenzenesulfonyl)-1,2,3,5-tetrahydro-4,1-benzoxazepine-3-yl]-9H-purine]
ΔΔG Experiment (3 -> L) [2]: -0.8 kcal/mol
IC50 [2]: 7.31 µM
IC50 [3]: 26.46 ± 0.03 µM
IC50 [4]: 71.69 ± 0.5 µM
IC50 [5]: 19.62 ± 0.01 µM
IC50 [6]: 13.3 ± 0.07 µM
melting point: 183 to 185 °C

O=[N+]([O-])c1ccc(S(=O)(=O)N2CC(n3cnc4c(Oc5ccccc5)nc(Cl)nc43)OCc3ccccc32)cc1 (stereo not shown) [Compound 9b, 2-Chloro-6-phenoxy-9-[1-(p-nitrobenzenesulfonyl)-1,2,3,5-tetrahydro-4,1-benzoxazepine-3-yl]-9H-purine]
IC50 [2]: 13.3 µM
IC50 [3]: 22.4 ± 0.03 µM
IC50 [4]: > 100 µM
IC50 [5]: > 100 µM
IC50 [6]: > 100 µM
melting point: 210 to 212 °C

CN(C)c1nc(Cl)nc2c1ncn2C1CN(S(=O)(=O)c2ccc([N+](=O)[O-])cc2)c2ccccc2CO1 (stereo not shown) [Compound 9c, 2-Chloro-6-dimethylamino-9-[1-(p-nitrobenzenesulfonyl)-1,2,3,5-tetrahydro-4,1-benzoxazepine-3-yl]-9H-purine]
ΔΔG Experiment (3 -> L) [2]: -0.44 kcal/mol
IC50 [2]: 14.4 µM
IC50 [3]: 20.7 ± 0.02 µM
IC50 [4]: 41.7 ± 0.79 µM
IC50 [5]: 87 ± 0.19 µM
IC50 [6]: > 100 µM
melting point: 203 to 205 °C

O=[N+]([O-])c1ccc(S(=O)(=O)N2CC(n3cnc4c(Nc5ccccc5)nc(Cl)nc43)OCc3ccccc32)cc1 (stereo not shown) [Compound 9d, 2-Chloro-6-anilino-9-[1-(p-nitrobenzenesulfonyl)-1,2,3,5-tetrahydro-4,1-benzoxazepine-3-yl]-9H-purine]
ΔΔG Experiment (3 -> L) [2]: 0.41 kcal/mol
IC50 [2]: 55.5 µM
IC50 [3]: 13.8 ± 0.02 µM
IC50 [4]: > 100 µM
IC50 [5]: > 100 µM
IC50 [6]: > 100 µM
melting point: 182 to 183 °C

O=[N+]([O-])c1ccccc1S(=O)(=O)N1CC(n2cnc3c(Sc4ccccc4)nc(Cl)nc32)OCc2ccccc21 (stereo not shown) [Compound 9e, 2-Chloro-6-phenylthio-9-[1-(o-nitrobenzenesulfonyl)-1,2,3,5-tetrahydro-4,1-benzoxazepine-3-yl]-9H-purine]
IC50 [2]: 11.5 µM
IC50 [3]: 20.5 ± 0.06 µM
IC50 [4]: > 100 µM
IC50 [5]: > 100 µM
IC50 [6]: 92.2 ± 8.9 µM
melting point: 212 to 214 °C

O=[N+]([O-])c1ccccc1S(=O)(=O)N1CC(n2cnc3c(Oc4ccccc4)nc(Cl)nc32)OCc2ccccc21 (stereo not shown) [Compound 9f, 2-Chloro-6-phenoxy-9-[1-(o-nitrobenzenesulfonyl)-1,2,3,5-tetrahydro-4,1-benzoxazepine-3-yl]-9H-purine]
IC50 [2]: 24.6 µM
IC50 [3]: 18 ± 0.02 µM
IC50 [4]: > 100 µM
IC50 [5]: > 100 µM
IC50 [6]: > 100 µM
melting point: 142 to 144 °C

O=[N+]([O-])c1ccccc1S(=O)(=O)N1CC(n2cnc3c(Nc4ccccc4)nc(Cl)nc32)OCc2ccccc21 (stereo not shown) [Compound 9g, 2-Chloro-6-anilino-9-[1-(o-nitrobenzenesulfonyl)-1,2,3,5-tetrahydro-4,1-benzoxazepine-3-yl]-9H-purine]
IC50 [2]: > 100 µM
IC50 [3]: 22.5 ± 0.02 µM
IC50 [4]: > 100 µM
IC50 [5]: > 100 µM
IC50 [6]: > 100 µM
melting point: 152 to 157 °C
